Reference: ChEMBL document CHEMBL4400545 (Bioorg Med Chem, 2019)

Each compound was assayed against Sodium- and chloride-dependent GABA transporter 1 (Mus musculus) (UniProt P31648) (assay: Inhibition of mouse GAT-1 assessed as percentage of remaining specific binding of NO711 at 1 uM after 4 hrs by LC-ESI-MS/ms analysis relative to control).

SMILES | Activity [%]
CC(C=O)(CCC#N)c1ccccc1 (stereo unspecified) | 92
COc1ccc(C=O)cc1 | 89
COc1ccccc1C=O | 89
Cc1ccccc1-c1ncccc1C=O | 87
Cc1ccsc1-c1sc(C=O)cc1C | 97
Cc1noc(-c2ccccc2C=O)n1 | 97
Cc1onc(-c2ccc(Cl)cc2)c1C=O | 92
O=CC(c1ccccc1)c1ccccc1 | 90
O=CC1CC2C=CC1C2 (stereo unspecified) | 85
O=Cc1c2ccccc2cc2ccccc12 | 87
O=Cc1c[nH]c2ncccc12 | 85
O=Cc1c[nH]nc1-c1ccc(F)cc1 | 92
O=Cc1cc(F)ccc1-c1ccc(Cl)cc1Cl | 82
O=Cc1cc(F)ccc1-c1ccccc1 | 80
O=Cc1cc(F)ccc1-c1ccccc1Cl | 80
O=Cc1cc(F)ccc1-c1ccccc1F | 80
O=Cc1cc2c(cc1-c1ccc(Cl)cc1Cl)OCO2 | 92
O=Cc1cc2c(cc1-c1ccccc1)OCO2 | 92
O=Cc1cc2c(cc1-c1ccccc1Cl)OCO2 | 92
O=Cc1cc2c(cc1-c1ccccc1F)OCO2 | 92
O=Cc1ccc(-c2ccc(C(F)(F)F)cc2Cl)o1 | 82
O=Cc1ccc(-c2ccccc2)cc1 | 90

SMILES | Activity [%]
O=Cc1ccc(-c2ccccc2OC(F)(F)F)o1 | 82
O=Cc1ccc(Br)cn1 | 92
O=Cc1ccc(Br)nc1 | 92
O=Cc1ccc(C#Cc2ccccc2)s1 | 94
O=Cc1ccc(O)cc1 | 89
O=Cc1ccc(OCc2ccccc2)cc1 | 90
O=Cc1ccc(Oc2ccccc2)cc1 | 90
O=Cc1ccc([N+](=O)[O-])cc1 | 92
O=Cc1ccc2c(c1)Cc1ccccc1-2 | 88
O=Cc1ccc2ccccc2n1 | 87
O=Cc1cccc(Br)n1 | 92
O=Cc1cccc(Oc2ccccc2)c1 | 90
O=Cc1cccc([N+](=O)[O-])c1 | 92
O=Cc1cccc2c1OCO2 | 80
O=Cc1ccccc1 | 89
O=Cc1ccccc1-c1c(F)cccc1F | 88
O=Cc1ccccc1-c1cc(F)ccc1F | 88
O=Cc1ccccc1-c1ccc(Cl)cc1 | 92
O=Cc1ccccc1-c1ccc(Cl)cc1Cl | 93
O=Cc1ccccc1-c1ccc(F)cc1 | 92
O=Cc1ccccc1-c1ccc(F)cc1Cl | 93
O=Cc1ccccc1-c1ccc2ccccc2c1 | 86

SMILES | Activity [%]
O=Cc1ccccc1-c1cccc(Cl)c1 | 92
O=Cc1ccccc1-c1cccc(F)c1 | 92
O=Cc1ccccc1-c1cccc(F)c1F | 88
O=Cc1ccccc1-c1cccc2ccccc12 | 85
O=Cc1ccccc1-c1ccccc1 | 90
O=Cc1ccccc1-c1ccccc1Cl | 93
O=Cc1ccccc1-c1ccccc1F | 93
O=Cc1ccccc1-c1cccnc1 | 88
O=Cc1ccccc1-c1ccco1 | 80
O=Cc1ccccc1-c1cccs1 | 92
O=Cc1ccccc1-n1cccc1 | 97
O=Cc1ccccc1-n1cccn1 | 88
O=Cc1ccccc1OCc1ccccc1 | 90
O=Cc1ccccc1Oc1ccccc1 | 88
O=Cc1ccccc1[N+](=O)[O-] | 92
O=Cc1ccccn1 | 85
O=Cc1cccn1-c1ccc(C(F)(F)F)cc1 | 82
O=Cc1cccnc1 | 94
O=Cc1cccnc1-c1ccc(Cl)cc1 | 87
O=Cc1cccnc1-c1ccc(Cl)cc1Cl | 86
O=Cc1cccnc1-c1cccc(Cl)c1 | 80
O=Cc1cccnc1-c1cccc(F)c1 | 87

SMILES | Activity [%]
O=Cc1cccnc1-c1ccccc1 | 87
O=Cc1cccnc1-c1ccccc1Cl | 97
O=Cc1cccnc1-c1ccccc1F | 80
O=Cc1cccnc1Br | 92
O=Cc1ccnc2ccccc12 | 87
O=Cc1csc2ccccc12 | 94
O=Cc1sccc1-c1ccc(Cl)cc1Cl | 86
O=Cc1sccc1-c1ccc(F)cc1Cl | 86
O=Cc1sccc1-c1ccccc1 | 94
O=Cc1sccc1-n1cccc1 | 92
COc1ccc(/C=N/OCCN2CCCC(C(=O)O)C2)c2ccccc12 (racemic) | 61
COc1ccc(/C=N/OCCN2CCCC(C(=O)O)C2)cc1 (racemic) | 74
COc1ccccc1/C=N/OCCN1CCCC(C(=O)O)C1 (racemic) | 74
Cc1ccc(/C=N/OCCN2CCCC(C(=O)O)C2)c2ccccc12 (racemic) | 60
Cc1ccccc1-c1ncccc1/C=N/OCCN1CCCC(C(=O)O)C1 (racemic) | 22
Cc1ccsc1-c1sc(/C=N/OCCN2CCCC(C(=O)O)C2)cc1C (racemic) | 33
Cc1noc(-c2ccccc2/C=N/OCCN2CCCC(C(=O)O)C2)n1 (racemic) | 33
O=C(O)C1CCCN(CCO/N=C/C2CC3C=CC2C3)C1 (racemic) | 45
O=C(O)C1CCCN(CCO/N=C/COCc2ccccc2)C1 (racemic) | 60
O=C(O)C1CCCN(CCO/N=C/c2c3ccccc3cc3ccccc23)C1 (racemic) | 62
O=C(O)C1CCCN(CCO/N=C/c2c[nH]c3ncccc23)C1 (racemic) | 45
O=C(O)C1CCCN(CCO/N=C/c2cc3c(cc2-c2ccc(Cl)cc2Cl)OCO3)C1 (racemic) | 19

SMILES | Activity [%]
O=C(O)C1CCCN(CCO/N=C/c2cc3c(cc2-c2ccccc2)OCO3)C1 (racemic) | 19
O=C(O)C1CCCN(CCO/N=C/c2cc3c(cc2-c2ccccc2Cl)OCO3)C1 (racemic) | 19
O=C(O)C1CCCN(CCO/N=C/c2cc3c(cc2-c2ccccc2F)OCO3)C1 (racemic) | 19
O=C(O)C1CCCN(CCO/N=C/c2cc3ccccc3c3ccccc23)C1 (racemic) | 62
O=C(O)C1CCCN(CCO/N=C/c2ccc(Br)cn2)C1 (racemic) | 71
O=C(O)C1CCCN(CCO/N=C/c2ccc(Br)nc2)C1 (racemic) | 71
O=C(O)C1CCCN(CCO/N=C/c2ccc(C#Cc3ccccc3)s2)C1 (racemic) | 48
O=C(O)C1CCCN(CCO/N=C/c2ccc(F)c3ccccc23)C1 (racemic) | 60
O=C(O)C1CCCN(CCO/N=C/c2ccc(O)c3ccccc23)C1 (racemic) | 61
O=C(O)C1CCCN(CCO/N=C/c2ccc(O)cc2)C1 (racemic) | 74
O=C(O)C1CCCN(CCO/N=C/c2ccc(OCc3ccccc3)cc2)C1 (racemic) | 29
O=C(O)C1CCCN(CCO/N=C/c2ccc(Oc3ccccc3)cc2)C1 (racemic) | 29
O=C(O)C1CCCN(CCO/N=C/c2ccc([N+](=O)[O-])cc2)C1 (racemic) | 60
O=C(O)C1CCCN(CCO/N=C/c2ccc3c(c2)Cc2ccccc2-3)C1 (racemic) | 37
O=C(O)C1CCCN(CCO/N=C/c2ccc3ccccc3c2)C1 (racemic) | 61
O=C(O)C1CCCN(CCO/N=C/c2ccc3ccccc3n2)C1 (racemic) | 62
O=C(O)C1CCCN(CCO/N=C/c2cccc(Br)n2)C1 (racemic) | 71
O=C(O)C1CCCN(CCO/N=C/c2cccc(Oc3ccccc3)c2)C1 (racemic) | 29
O=C(O)C1CCCN(CCO/N=C/c2cccc([N+](=O)[O-])c2)C1 (racemic) | 60
O=C(O)C1CCCN(CCO/N=C/c2cccc3c2OCO3)C1 (racemic) | 32
O=C(O)C1CCCN(CCO/N=C/c2cccc3ccccc23)C1 (racemic) | 61
O=C(O)C1CCCN(CCO/N=C/c2ccccc2)C1 (racemic) | 74

SMILES | Activity [%]
O=C(O)C1CCCN(CCO/N=C/c2ccccc2-c2cccc3ccccc23)C1 (racemic) | 45
O=C(O)C1CCCN(CCO/N=C/c2ccccc2-c2cccnc2)C1 (racemic) | 37
O=C(O)C1CCCN(CCO/N=C/c2ccccc2-c2ccco2)C1 (racemic) | 32
O=C(O)C1CCCN(CCO/N=C/c2ccccc2-n2cccc2)C1 (racemic) | 33
O=C(O)C1CCCN(CCO/N=C/c2ccccc2OCc2ccccc2)C1 (racemic) | 29
O=C(O)C1CCCN(CCO/N=C/c2ccccc2Oc2ccccc2)C1 (racemic) | 37
O=C(O)C1CCCN(CCO/N=C/c2ccccc2[N+](=O)[O-])C1 (racemic) | 60
O=C(O)C1CCCN(CCO/N=C/c2ccccn2)C1 (racemic) | 45
O=C(O)C1CCCN(CCO/N=C/c2cccnc2)C1 (racemic) | 48
O=C(O)C1CCCN(CCO/N=C/c2cccnc2-c2ccc(Cl)cc2)C1 (racemic) | 22
O=C(O)C1CCCN(CCO/N=C/c2cccnc2-c2cccc(Cl)c2)C1 (racemic) | 32
O=C(O)C1CCCN(CCO/N=C/c2cccnc2-c2cccc(F)c2)C1 (racemic) | 22
O=C(O)C1CCCN(CCO/N=C/c2cccnc2-c2ccccc2)C1 (racemic) | 22
O=C(O)C1CCCN(CCO/N=C/c2cccnc2-c2ccccc2Cl)C1 (racemic) | 33
O=C(O)C1CCCN(CCO/N=C/c2cccnc2-c2ccccc2F)C1 (racemic) | 32
O=C(O)C1CCCN(CCO/N=C/c2cccnc2Br)C1 (racemic) | 71
O=C(O)C1CCCN(CCO/N=C/c2ccnc3ccccc23)C1 (racemic) | 62
O=C(O)C1CCCN(CCO/N=C/c2ccncc2)C1 (racemic) | 60
O=C(O)C1CCCN(CCO/N=C/c2csc3ccccc23)C1 (racemic) | 48
O=C(O)C1CCCN(CCO/N=C/c2sccc2-c2ccccc2)C1 (racemic) | 48
O=C(O)C1CCCN(CCO/N=C/c2sccc2-n2cccc2)C1 (racemic) | 60
